Reference: patent publication US11643439B2, “Multi-target compound with anticoagulation and antiplatelet activity, preparation method therefor, and use thereof” (SHAANXI MICOT TECHNOLOGY LIMITED COMPANY, priority 2015, dated 2023)

How the values were obtained:
[1] = system: FeCl3-induced inferior vena cava thrombosis; assay: FeCl3-induced inferior vena cava thrombosis in rats; assay type: in vivo, rat
Protocol: (§1) 160 Rats were randomly divided into groups, 5 to 10 rats per group.
(§2) According to the body weight in kilograms of the rats, the first dose of a drug was dissolved in 2 mL of physiological saline for single bolus injection. The maintaining dose of drug was dissolved in 9 ml of physiological saline, and placed in a double-channel micro-injection pump, which was dripped off within 90 minutes at a dripping speed of 0.1 ml/min. The sham operation group was administered with the same volume of physiological saline.
(§3) The rats were fasted with free access to water overnight before the experiment.
15 minutes later, the filter paper was removed. And then, after observation for 45 minutes, the blood vessels and local tissues were rinsed with warm physiological saline, and the covered blood vessels were cut off. The thrombus which attached to the blood vessel walls was peeled off to be weighed on a tin foil for its wet weight, and then weighed overnight at room temperature for its dry weight. The administration was continued until the completion of the experiment.
After the experiment was completed, the segment of the blood vessels in which there had been thrombus formation was cut off, weighed for the wet weight, and then weighed overnight at room temperature for the dry weight of the thrombus. Thrombosis inhibitory rate was calculated.

[2] = system: blood coagulation function; assay: PT in rats, intravenous maintenance administration; assay type: in vivo, rat
Protocol: as §1, §2, §3
The blood samples were taken before administration, administration for 60 minutes, and before termination of administration, respectively, to determine their activated partial thromboplastin time (APTT) and prothrombin time (PT). The blood samples were centrifuged at 3510 rpm for 8 minutes to obtain platelet poor plasma (PPP). Reagent reconstruction and preservation were performed according to the operation requirements of the kit. Immediately after each blood sample was placed into a test cup and then PT and APTT reagents were added, the test was started. After the test was completed, results were recorded.
5.1 Determination of blood coagulation function: The blood samples were taken 0 min before administration, administration for 60 minutes, and termination of administration, respectively, and then determined using a platelet-aggregation coagulation factor analyzer for the blood coagulation functions (PT. APTT) and ACT.

[3] = system: femoral arterial and venous bypass thrombosis; assay: Femoral arterial and venous bypass thrombosis in rabbits, single intravenous administration; assay type: in vivo, rabbit; details: 15 min
Protocol: (§4) 1. Grouping and administration: 48 Rabbits were randomly divided into 6 groups, 8 rabbits per group. 1) Sham operation group (NS): Intravenous injection of the same volume of physiological saline; 2) positive control bivalirudin group (6 mg/kg); 3) positive control enoxaparin group (200 U/kg); 4) Low dose group of polypeptide 2 (3.0 mg/kg); 5) Medium dose group of polypeptide 2 (6.0 mg/kg); 6) High dose group of polypeptide 2 (12.0 mg/kg). Polypeptide 2 was administered by single intravenous administration. According to the body weight in kilograms of the rabbits, the sample was dissolved in 2 mL of physiological saline for single bolus injection. The sham operation group was administered with the same volume of physiological saline.
2.1 Surgery preparation of rabbits: Rabbit were sent to the laboratory for accommodation for one day, and then screened at first. Blood samples were taken from arteries within ears, which were subjected to blood routine analysis and APTT examinations, and the rabbits with a normal blood hemogram and APTT between 16 and 28 seconds were selected for experiments. The rabbits to be tested were fasted with free access to water in the night before the experiment. The rabbits were anesthetized with intravenous injection of 3% sodium pentobarbital solution at 1 ml/kg, fixed in the supine position, and then, the common carotid artery at one side, external jugular vein, femoral artery at one side, femoral vein, and forelimb vein at one side were isolated. The forelimb vein was subjected to intubation for administration; the left femoral vein was subjected to intubation for blood collection to determine the platelet aggregation rate: the femoral artery was used for the establishment of an arterial thrombosis model; the common carotid artery and external jugular vein were used for the establishment of an arterial and venous bypass thrombosis model.
2.2 Arterial and venous bypass thrombosis (AVST) model: An arterial and venous shunt consists of two casings, of which an outer casing has a length of about 8 cm and an inner diameter of 7.9 mm, the inner casing has a length of about 2.5 cm and an inner diameter of 4.8 mm. The polyethylene tube was charged with a silk thread about 8 cm long and filled with […] heparin solution, of which one end was inserted into the left femoral artery and the other end was inserted into the right femoral vein. After administration for 30 seconds, the blood flow was released, which flowed from the left artery to the polyethylene tube and returned to the right vein. After 15 minutes, the blood flow was interrupted, the silk thread was quickly removed and placed on an aluminum foil (size: 2.5 cm×2.5 cm), measured for its wet weight, and kept overnight at room temperature and weighed for its dry weight.
The femoral arteries in the […] and both sides in the rabbits were isolated and stabilized for 10 min before the administration was started. An AT model was established by covering the femoral artery with 50% FeCl3 filter paper while administration, and the filter paper was removed after covering for 15 minutes. An AVST model was established and it was taken out after […]. Observation was continued for 120 min after administration until the experiment was completed.
3.4 Thrombus weight: After the experiment was completed, the segment of the blood vessels in which there had been thrombus formation was cut off, weighed for the wet weight, and then kept overnight at room temperature and weighed for the dry weight. The thrombosis inhibitory rate was calculated with a calculation equation as follows: […]

[4] = system: blood coagulation function; assay: TT in rabbits, single intravenous administration; assay type: in vivo, rabbit
Protocol: as §4
3.2 Determination of blood coagulation function: Blood samples were taken and the blood function (PT, TT, APTT) was determined at 0 min before administration, at points of 5 min and 15 min after administration, using a platelet-aggregation coagulation factor analyzer. Blood samples were centrifuged at 3510 rpm for 8 min to obtain platelet poor plasma (PPP). Reagent reconstruction and preservation were performed according to the operation requirements of the kit. Immediately after each blood sample was placed into a test cup and then added with PT. TT and APTT reagents, the test was started. After the test was completed, results were recorded.

[5] = iv 0.08 + 0.325 (mg/kg + mg/kg/h)
[6] = iv 0.17 + 0.65 (mg/kg + mg/kg/h)
[7] = iv 0.35 + 1.3 (mg/kg + mg/kg/h)

Bivalirudin: Bivalirudin for Injection, Xi'an Xintong Pharmaceutical Research Co., Ltd.; positive control thrombin inhibitor
Inferior vena cava thrombosis Inhibition percentage [1, 5]: 20.03% | Inferior vena cava thrombosis Thrombus weight [1, 5]: 18.03 ± 1.39 mg | Inferior vena cava thrombosis Inhibition percentage [1, 6]: 35.97% | Inferior vena cava thrombosis Thrombus weight [1, 6]: 14.43 ± 3.84 mg | Inferior vena cava thrombosis Inhibition percentage [1, 7]: 68.67% | Inferior vena cava thrombosis Thrombus weight [1, 7]: 7.06 ± 4.07 mg | Inferior vena cava thrombosis Inhibition percentage ([1]; iv 0.5 + 2 (mg/kg + mg/kg/h)): 67.79% | Inferior vena cava thrombosis Thrombus weight ([1]; iv 0.5 + 2 (mg/kg + mg/kg/h)): 7.26 ± 3.15 mg | PT Before administration [2, 5]: 10.42 ± 1.16 | PT Fold of change [2, 5]: 1.82 ± 0.24 | PT administration for 60 minutes [2, 5]: 18.95 ± 3.36 | PT Before administration [2, 6]: 11.16 ± 1.28 | PT Fold of change [2, 6]: 1.99 ± 0.78 | PT administration for 60 minutes [2, 6]: 21.85 ± 7.38 | PT Before administration [2, 7]: 11.73 ± 1.48 | PT Fold of change [2, 7]: 3.54 ± 1.45 | PT administration for 60 minutes [2, 7]: 42.58 ± 21.94 | PT Before administration ([2]; iv 0.5 + 2 (mg/kg + mg/kg/h)): 7.87 ± 1.93 | PT Fold of change ([2]; iv 0.5 + 2 (mg/kg + mg/kg/h)): 4.46 ± 1.47 | PT administration for 60 minutes ([2]; iv 0.5 + 2 (mg/kg + mg/kg/h)): 39.13 ± 7.30 | Thrombus dry weight ([3]; single iv 6.0 mg/kg): 20.8 ± 6.3 mg | Thrombus inhibitory rate ([3]; single iv 6.0 mg/kg): 11.86% | TT ([4]; single iv 6.0 mg/kg, Administration for 5 min): >180 s | TT ([4]; single iv 6.0 mg/kg, Administration for 15 min): >180 s | TT ([4]; single iv 6.0 mg/kg, Before administration): 22.4 ± 5.2 S

Enoxaparin
Inferior vena cava thrombosis Inhibition percentage ([1]; iv 30 + 45 u (U/kg+U/kg/h)): 34.93% | Inferior vena cava thrombosis Thrombus weight ([1]; iv 30 + 45 u (U/kg+U/kg/h)): 14.67 ± 8.44 mg | Inferior vena cava thrombosis Inhibition percentage ([1]; iv 30 + 120 u (U/kg+U/kg/h)): 49.07% | Inferior vena cava thrombosis Thrombus weight ([1]; iv 30 + 120 u (U/kg+U/kg/h)): 11.48 ± 2.81 mg | Inferior vena cava thrombosis Inhibition percentage ([1]; iv 60 + 60 u (U/kg+U/kg/h)): 50.42% | Inferior vena cava thrombosis Thrombus weight ([1]; iv 60 + 60 u (U/kg+U/kg/h)): 11.18 ± 4.47 mg | Inferior vena cava thrombosis Inhibition percentage ([1]; iv 60 + 240 u (U/kg+U/kg/h)): 86.25% | Inferior vena cava thrombosis Thrombus weight ([1]; iv 60 + 240 u (U/kg+U/kg/h)): 6.59 ± 2.54 mg | Inferior vena cava thrombosis Inhibition percentage ([1]; iv 90 + 120 u (U/kg+U/kg/h)): 64.06% | Inferior vena cava thrombosis Thrombus weight ([1]; iv 90 + 120 u (U/kg+U/kg/h)): 8.10 ± 3.67 mg | PT Before administration ([2]; iv 30 + 45 u (U/kg+U/kg/h)): 10.23 ± 1.19 | PT Fold of change ([2]; iv 30 + 45 u (U/kg+U/kg/h)): 1.24 ± 0.14 | PT administration for 60 minutes ([2]; iv 30 + 45 u (U/kg+U/kg/h)): 12.70 ± 2.49 | PT Before administration ([2]; iv 30 + 120 u (U/kg+U/kg/h)): 9.93 ± 1.77 | PT Fold of change ([2]; iv 30 + 120 u (U/kg+U/kg/h)): 1.67 ± 0.42 | PT administration for 60 minutes ([2]; iv 30 + 120 u (U/kg+U/kg/h)): 16.17 ± 1.86 | PT Before administration ([2]; iv 60 + 60 u (U/kg+U/kg/h)): 9.53 ± 1.96 | PT Fold of change ([2]; iv 60 + 60 u (U/kg+U/kg/h)): 4.10 ± 5.56 | PT administration for 60 minutes ([2]; iv 60 + 60 u (U/kg+U/kg/h)): 31.39 ± 35.50 | PT Before administration ([2]; iv 60 + 240 u (U/kg+U/kg/h)): 10.28 ± 0.98 | PT Fold of change ([2]; iv 60 + 240 u (U/kg+U/kg/h)): 1.78 ± 0.30 | PT administration for 60 minutes ([2]; iv 60 + 240 u (U/kg+U/kg/h)): 18.21 ± 2.70 | PT Before administration ([2]; iv 90 + 120 u (U/kg+U/kg/h)): 9.63 ± 1.58 | PT Fold of change ([2]; iv 90 + 120 u (U/kg+U/kg/h)): 1.57 ± 0.21 | PT administration for 60 minutes ([2]; iv 90 + 120 u (U/kg+U/kg/h)): 14.88 ± 1.67 | Thrombus dry weight ([3]; single iv 200 U (U/kg)): 17.3 ± 6.5 mg | Thrombus inhibitory rate ([3]; single iv 200 U (U/kg)): 26.88% | TT ([4]; single iv 200 (U/kg), Administration for 5 min): >180 s | TT ([4]; single iv 200 (U/kg), Administration for 15 min): >180 s | TT ([4]; single iv 200 (U/kg), Before administration): 20.7 ± 4.2 S
